Laboratory results reported in the supplement of paper PMC11061612.

What was measured:
[1] = system: HPAF-II (Pancreatic Carcinoma); test: Bliss excess, mean over the matrix (fraction); higher = more synergy
Summary of the method: (§1)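 Cell lines in DMEM/F12 or RPMI with 10% FBS were plated in 1536-well plates, held 24 hours at 37°C, 5% CO2, then given two-drug dose matrices for 72 hours (DMSO typically 0.2%). Viability was read by CellTiter-Glo 2.0 luminescence and scaled as inhibition from 0 (vehicle wells) to 1 (blank wells). Combination Emax is the second-highest inhibition in the matrix; Bliss excess is observed combination effect minus expected EA + EB − EA·EB, EA and EB being single-agent effects.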

[2] = system: BHT-101 (Thyroid Gland Carcinoma); test: combination Emax (second highest fraction inhibited in the dose matrix, 72 h); higher = more inhibition; extreme values may be limits of the assay
Summary of the method: as §1

[3] = system: BxPC-3 (Pancreatic Carcinoma); test: as above
Summary of the method: as §1

[4] = system: COR-L88 (Small Cell Lung Carcinoma); test: as above
Summary of the method: as §1

ES6 (Ewing's Sarcoma) = test: as above
Summary of the method: as §1

GAK (Melanoma) = test: as above
Summary of the method: as §1

[5] = system: HPAF-II (Pancreatic Carcinoma); test: as above
Summary of the method: as §1

[6] = system: IA-LM (Non-Small Cell Lung Carcinoma); test: as above
Summary of the method: as §1

NCI-H2373 (Mesothelioma) = test: as above
Summary of the method: as §1

[7] = system: OVCAR-3 (Ovarian Carcinoma); test: as above
Summary of the method: as §1

[8] = system: P32-ISH (Burkitt's Lymphoma); test: as above
Summary of the method: as §1

[9] = system: PL4 (Pancreatic Carcinoma); test: as above
Summary of the method: as §1

[10] = system: SK-CO-1 (Colorectal Carcinoma); test: as above
Summary of the method: as §1

[11] = system: SNU-423 (Hepatocellular Carcinoma); test: as above
Summary of the method: as §1

[12] = system: SUP-M2 (T-Cell Non-Hodgkin's Lymphoma); test: as above
Summary of the method: as §1

[13] = system: SiHa (Cervical Carcinoma); test: as above
Summary of the method: as §1
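Throughout, for Bliss excess, mean over the matrix: after 72 h of two-drug dosing.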

Structure (SMILES) | Bliss excess [1] | combination Emax [2] | combination Emax [3] | combination Emax [4] | combination Emax (ES6 (Ewing's Sarcoma)) | combination Emax (GAK (Melanoma)) | combination Emax [5] | combination Emax [6] | combination Emax (NCI-H2373 (Mesothelioma)) | combination Emax [7] | combination Emax [8] | combination Emax [9] | combination Emax [10] | combination Emax [11] | combination Emax [12] | combination Emax [13]
CN(C)CCCOc1ccc(-c2ccc3ncc4c(c3c2)n(C2CCOCC2)c(=O)n4C)cn1 [AZD0156] + O=C(c1cc(Cc2n[nH]c(=O)c3ccccc23)ccc1F)N1CCN(C(=O)C2CC2)CC1 [Olaparib] (first compound max 3 µM, partner max 3 µM) | -0.0048 | 0.362 | 0.0983 | 0.16 | 0.315 | 0.193 | 0.25 | 0.305 | 0.359 | 0.227 | 0.628 | 0.34 | 0.608 | 0.293 | 0.606 | 0.261
C=CCn1c(=O)c2cnc(Nc3ccc(N4CCN(C)CC4)cc3)nc2n1-c1cccc(C(C)(C)O)n1 [AZD1775] + C1CN(CCC1(C(=O)N[C@@H](CCO)C2=CC=C(C=C2)Cl)N)C3=NC=NC4=C3C=CN4 [Capivasertib] (first compound max 3 µM, partner max 3 µM) | -0.096 | 0.631 | 0.681 | 0.703 | 0.472 | 0.73 | 0.605 | 0.413 | 0.54 | 0.695 | 1 | 0.737 | 0.691 | 0.659 | 1 | 0.505
COc1nnc2ccc(N3CCC(c4ccc(OCCN5CCN(C)C(=O)[C@H]5C)cc4)CC3)nn12 [AZD5153] + C=CCn1c(=O)c2cnc(Nc3ccc(N4CCN(C)CC4)cc3)nc2n1-c1cccc(C(C)(C)O)n1 [AZD1775] (first compound max 1 µM, partner max 1 µM) | -0.0147 | 0.737 | 0.529 | 0.677 | 0.516 | 0.471 | 0.449 | 0.348 | 0.399 | 0.852 | 0.982 | 0.662 | 0.56 | 0.462 | 0.996 | 0.621
COc1nnc2ccc(N3CCC(c4ccc(OCCN5CCN(C)C(=O)[C@H]5C)cc4)CC3)nn12 [AZD5153] + CC1(C)CCC(CN2CCN(c3ccc(C(=O)NS(=O)(=O)c4ccc(NCC5CCOCC5)c([N+](=O)[O-])c4)c(Oc4cnc5[nH]ccc5c4)c3)CC2)=C(c2ccc(Cl)cc2)C1 [Venetoclax] (first compound max 1 µM, 7x7, partner max 1 µM) | -0.0057 | 0.718 | 0.473 | 0.348 | 0.292 | 0.478 | 0.365 | 0.495 | 0.39 | 0.522 | 0.701 | 0.572 | 0.321 | 0.41 | 0.965 | 0.505
COc1nnc2ccc(N3CCC(c4ccc(OCCN5CCN(C)C(=O)[C@H]5C)cc4)CC3)nn12 [AZD5153] + CCN(CCO)CCCOc1ccc2c(Nc3cc(CC(=O)Nc4cccc(F)c4)[nH]n3)ncnc2c1 [AZD2811] (first compound max 1 µM, 7x7, partner max 1 µM) | 0.0072 | 0.7 | 0.491 | 0.237 | 0.43 | 0.44 | 0.379 | 0.401 | 0.41 | 0.602 | 0.873 | 0.53 | 0.571 | 0.507 | 0.994 | 0.571
COc1nnc2ccc(N3CCC(c4ccc(OCCN5CCN(C)C(=O)[C@H]5C)cc4)CC3)nn12 [AZD5153] + C[C@@H]1COCCN1C2=NC(=NC(=C2)C3(CC3)[S@](=N)(=O)C)C4=C5C=CNC5=NC=C4 [AZD6738] (first compound max 1 µM, 7x7, partner max 10 µM) | 0.0002 | 0.816 | 0.602 | 0.548 | 0.585 | 0.605 | 0.512 | 0.443 | 0.565 | 0.821 | 0.957 | 0.756 | 0.714 | 0.517 | 1 | 0.639
COc1nnc2ccc(N3CCC(c4ccc(OCCN5CCN(C)C(=O)[C@H]5C)cc4)CC3)nn12 [AZD5153] + Cc1c2c(nn1C)CSCc1cc(n(C)n1)CSc1cc(c3ccccc3c1)OCCCc1c(C(=O)O)n(C)c3c-2c(Cl)ccc13 [AZD5991] (first compound max 1 µM, 7x7, partner max 1 µM) | -0.0124 | 0.84 | 0.463 | 0.807 | 0.45 | 0.836 | 0.35 | 0.483 | 0.381 | 0.632 | 1 | 0.63 | 0.403 | 0.431 | 1 | 0.666
CC1(C)CCC(CN2CCN(c3ccc(C(=O)NS(=O)(=O)c4ccc(NCC5CCOCC5)c([N+](=O)[O-])c4)c(Oc4cnc5[nH]ccc5c4)c3)CC2)=C(c2ccc(Cl)cc2)C1 [Venetoclax] + CN(C)CCCOc1ccc(-c2ccc3ncc4c(c3c2)n(C2CCOCC2)c(=O)n4C)cn1 [AZD0156] (first compound max 1 µM, 7x7, partner max 1 µM) | – | 0.246 | 0.276 | 0.525 | 0.349 | 0.293 | – | 0.217 | 0.269 | 0.119 | 0.0131 | 0.248 | 0.271 | 0.271 | 0.264 | 0.152
CC1(C)CCC(CN2CCN(c3ccc(C(=O)NS(=O)(=O)c4ccc(NCC5CCOCC5)c([N+](=O)[O-])c4)c(Oc4cnc5[nH]ccc5c4)c3)CC2)=C(c2ccc(Cl)cc2)C1 [Venetoclax] + COc1cc(Nc2ncc3c(n2)-c2ccc(Cl)cc2C(c2c(F)cccc2OC)=NC3)ccc1C(=O)O [Alisertib] (first compound max 1 µM, 7x7, partner max 10 µM) | – | 0.672 | 0.226 | 0.727 | 0.277 | 0.147 | – | 0.617 | 0.253 | 0.394 | 1 | 0.448 | 0.629 | 0.361 | 0.902 | 0.212
CC1(C)CCC(CN2CCN(c3ccc(C(=O)NS(=O)(=O)c4ccc(NCC5CCOCC5)c([N+](=O)[O-])c4)c(Oc4cnc5[nH]ccc5c4)c3)CC2)=C(c2ccc(Cl)cc2)C1 [Venetoclax] + C[C@@H]1COCCN1C2=NC(=NC(=C2)C3(CC3)[S@](=N)(=O)C)C4=C5C=CNC5=NC=C4 [AZD6738] (first compound max 1 µM, 7x7, partner max 10 µM) | – | 0.642 | 0.389 | 0.769 | 0.571 | 0.528 | – | 0.435 | 0.591 | 0.48 | 0.933 | 0.709 | 0.55 | 0.441 | 0.979 | 0.286
CC1(C)CCC(CN2CCN(c3ccc(C(=O)NS(=O)(=O)c4ccc(NCC5CCOCC5)c([N+](=O)[O-])c4)c(Oc4cnc5[nH]ccc5c4)c3)CC2)=C(c2ccc(Cl)cc2)C1 [Venetoclax] + C[C@@H](Nc1cc(F)cc(F)c1)c1cc(C(=O)N(C)C)cc2c(=O)cc(N3CCOCC3)oc12 [AZD8186] (first compound max 1 µM, 7x7, partner max 3 µM) | – | 0.272 | 0.245 | 0.617 | 0.198 | 0.242 | – | 0.0865 | 0.216 | 0.241 | 0.341 | 0.243 | 0.187 | 0.383 | 0.344 | 0.243
CC1(C)CCC(CN2CCN(c3ccc(C(=O)NS(=O)(=O)c4ccc(NCC5CCOCC5)c([N+](=O)[O-])c4)c(Oc4cnc5[nH]ccc5c4)c3)CC2)=C(c2ccc(Cl)cc2)C1 [Venetoclax] + Cc1cc2ncnn2cc1Nc1ncc2c(n1)n(C1CCOCC1)c(=O)n2C [AZD7648] (first compound max 1 µM, 7x7, partner max 10 µM) | – | 0.221 | 0.283 | 0.515 | 0.37 | 0.204 | – | 0.261 | 0.39 | 0.196 | 0.0629 | 0.357 | 0.229 | 0.292 | 0.283 | 0.18
CC1(C)CCC(CN2CCN(c3ccc(C(=O)NS(=O)(=O)c4ccc(NCC5CCOCC5)c([N+](=O)[O-])c4)c(Oc4cnc5[nH]ccc5c4)c3)CC2)=C(c2ccc(Cl)cc2)C1 [Venetoclax] + Cn1cnc2c(F)c(Nc3ccc(Br)cc3Cl)c(C(=O)NOCCO)cc21 [Selumetinib] (first compound max 1 µM, 7x7, partner max 3 µM) | – | 0.686 | 0.323 | 0.543 | 0.162 | 0.731 | – | 0.175 | 0.295 | 0.126 | 0.239 | 0.443 | 0.727 | 0.192 | 0.366 | 0.16
